Experimental data as given in paper PMC12391391, “The balance between B55α and Greatwall expression levels predicts sensitivity to Greatwall inhibition in cancer cells” (Nature Communications, 2025).

Experiments:
[1] = target: T1, Greatwall kinase (GWL, MASTL) (Homo sapiens, UniProt Q96GX5, K72M); assay: HTRF kinase assay with purified full-length GWL (K72M) and ENSA; assay type: biochemical
T1 construct: full-length
T1 sequence (Q96GX5 1-879 K72M): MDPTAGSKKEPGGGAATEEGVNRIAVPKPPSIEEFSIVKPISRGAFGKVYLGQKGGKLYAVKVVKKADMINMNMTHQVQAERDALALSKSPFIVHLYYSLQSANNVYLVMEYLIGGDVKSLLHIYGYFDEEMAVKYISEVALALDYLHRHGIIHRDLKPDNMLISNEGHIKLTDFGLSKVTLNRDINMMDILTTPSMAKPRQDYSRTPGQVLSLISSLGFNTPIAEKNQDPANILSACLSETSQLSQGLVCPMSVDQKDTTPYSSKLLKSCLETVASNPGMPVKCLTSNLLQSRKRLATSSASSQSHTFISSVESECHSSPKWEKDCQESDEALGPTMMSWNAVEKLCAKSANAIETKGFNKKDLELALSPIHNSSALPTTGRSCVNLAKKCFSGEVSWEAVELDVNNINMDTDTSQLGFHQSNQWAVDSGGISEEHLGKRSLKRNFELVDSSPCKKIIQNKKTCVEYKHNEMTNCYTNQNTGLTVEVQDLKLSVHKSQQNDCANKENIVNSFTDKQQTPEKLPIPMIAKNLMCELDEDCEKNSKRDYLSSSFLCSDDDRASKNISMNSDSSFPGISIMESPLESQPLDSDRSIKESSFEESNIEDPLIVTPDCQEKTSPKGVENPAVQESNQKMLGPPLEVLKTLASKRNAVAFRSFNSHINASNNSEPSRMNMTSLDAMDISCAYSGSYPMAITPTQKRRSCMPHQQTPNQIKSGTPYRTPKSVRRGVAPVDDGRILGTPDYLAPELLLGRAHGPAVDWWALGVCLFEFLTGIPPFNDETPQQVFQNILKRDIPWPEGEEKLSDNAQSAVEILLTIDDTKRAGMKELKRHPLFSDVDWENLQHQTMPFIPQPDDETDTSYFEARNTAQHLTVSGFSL

ULK2 = target: T2, ULK2 (Homo sapiens, UniProt Q8IYT8); assay: biochemical; design: LanthaScreen kinase activity assay (Thermo Fisher), dose-dependent inhibition by C-604; conditions: read-out: IC50 (C-604)
T2 sequence (Q8IYT8 1-1036): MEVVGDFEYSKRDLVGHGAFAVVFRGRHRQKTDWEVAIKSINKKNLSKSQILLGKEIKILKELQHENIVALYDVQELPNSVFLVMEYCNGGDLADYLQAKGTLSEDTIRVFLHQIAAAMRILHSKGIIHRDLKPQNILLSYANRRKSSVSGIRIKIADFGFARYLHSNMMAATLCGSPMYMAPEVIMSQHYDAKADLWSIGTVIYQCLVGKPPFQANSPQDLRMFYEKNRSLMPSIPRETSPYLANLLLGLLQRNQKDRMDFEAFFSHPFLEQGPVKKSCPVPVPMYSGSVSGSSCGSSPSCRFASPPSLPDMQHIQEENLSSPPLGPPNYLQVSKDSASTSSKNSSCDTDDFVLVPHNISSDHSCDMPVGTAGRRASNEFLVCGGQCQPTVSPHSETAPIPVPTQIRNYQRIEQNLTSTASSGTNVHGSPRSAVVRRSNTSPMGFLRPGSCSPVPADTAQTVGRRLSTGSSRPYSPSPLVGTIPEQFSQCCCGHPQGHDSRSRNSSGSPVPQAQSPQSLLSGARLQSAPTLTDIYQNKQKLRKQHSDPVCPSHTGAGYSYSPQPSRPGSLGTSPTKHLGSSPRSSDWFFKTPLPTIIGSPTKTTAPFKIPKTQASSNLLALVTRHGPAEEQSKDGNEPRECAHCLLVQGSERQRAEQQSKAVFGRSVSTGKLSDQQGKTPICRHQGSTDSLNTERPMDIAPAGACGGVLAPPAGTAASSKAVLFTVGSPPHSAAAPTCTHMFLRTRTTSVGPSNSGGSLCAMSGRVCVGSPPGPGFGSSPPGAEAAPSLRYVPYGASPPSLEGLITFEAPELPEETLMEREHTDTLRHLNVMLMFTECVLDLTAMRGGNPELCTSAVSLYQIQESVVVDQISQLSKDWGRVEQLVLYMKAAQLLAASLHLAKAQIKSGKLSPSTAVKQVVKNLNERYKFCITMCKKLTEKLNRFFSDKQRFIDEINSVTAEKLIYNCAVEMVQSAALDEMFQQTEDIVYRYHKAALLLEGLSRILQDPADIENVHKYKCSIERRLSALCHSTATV
Protocol: (§1) To identify potential C-604 off-targets, we utilised a commercially available off-target screening service (Thermo Fisher Scientific) to assess the impact of C-604 on the in vitro activity of 100 human kinases (Supplementary Fig. 8a). Out of 100 tested targets, C-604 (1 µM) inhibited GWL (inhibition 95%) and an additional 10 kinases (inhibition ≥ 80%). […] The in vitro off-target effects of compound C-604 were determined by assessing its inhibitory potential in a panel of 100 human kinases using the LanthaScreen Kinase Activity Assay (Thermo Fisher Scientific).

MAP3K7 = target: T3, MAP3K7 (Homo sapiens, UniProt O43318); assay: biochemical; design: LanthaScreen kinase activity assay (Thermo Fisher), dose-dependent inhibition by C-604; conditions: read-out: IC50 (C-604)
T3 sequence (O43318 1-606): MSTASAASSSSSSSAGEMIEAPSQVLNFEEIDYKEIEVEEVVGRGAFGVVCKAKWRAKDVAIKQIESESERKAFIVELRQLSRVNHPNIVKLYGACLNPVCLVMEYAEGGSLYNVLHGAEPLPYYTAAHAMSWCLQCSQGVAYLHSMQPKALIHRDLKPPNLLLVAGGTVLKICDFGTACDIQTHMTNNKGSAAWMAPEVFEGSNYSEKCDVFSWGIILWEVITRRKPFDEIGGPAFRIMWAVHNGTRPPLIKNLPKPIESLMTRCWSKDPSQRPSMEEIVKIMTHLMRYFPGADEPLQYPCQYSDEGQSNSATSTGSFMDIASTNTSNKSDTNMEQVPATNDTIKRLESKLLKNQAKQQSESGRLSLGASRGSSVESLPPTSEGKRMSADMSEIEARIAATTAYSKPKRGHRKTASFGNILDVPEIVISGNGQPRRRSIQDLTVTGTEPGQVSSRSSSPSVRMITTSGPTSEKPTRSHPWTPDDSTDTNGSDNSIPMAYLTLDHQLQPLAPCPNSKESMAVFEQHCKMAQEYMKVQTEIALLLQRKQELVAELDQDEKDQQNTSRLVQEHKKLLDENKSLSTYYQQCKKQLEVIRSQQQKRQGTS
Protocol: as §1

GSK3B = GSK3B (Homo sapiens, UniProt P49841); assay: biochemical; design: LanthaScreen kinase activity assay (Thermo Fisher), dose-dependent inhibition by C-604; conditions: read-out: IC50 (C-604)
Protocol: as §1

GSK3B, sequence (P49841 whole entry): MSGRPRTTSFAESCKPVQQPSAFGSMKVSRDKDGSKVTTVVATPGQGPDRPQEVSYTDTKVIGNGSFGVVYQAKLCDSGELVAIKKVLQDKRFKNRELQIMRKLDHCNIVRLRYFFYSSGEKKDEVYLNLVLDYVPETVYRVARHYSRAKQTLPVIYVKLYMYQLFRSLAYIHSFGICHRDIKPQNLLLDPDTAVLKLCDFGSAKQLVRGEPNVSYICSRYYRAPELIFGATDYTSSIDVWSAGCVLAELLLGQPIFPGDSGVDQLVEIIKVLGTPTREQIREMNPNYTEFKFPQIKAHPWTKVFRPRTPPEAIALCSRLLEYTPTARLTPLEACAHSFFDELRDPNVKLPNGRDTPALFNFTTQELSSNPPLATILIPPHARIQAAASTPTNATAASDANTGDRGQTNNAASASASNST

**Q.** For `CNC(=O)c1c[nH]c2ncc(-c3ccc(OCCN4CCC(c5ccccc5)C4)cc3)nc12` (racemic) [compound 21, C-604], which IC50 [1] is on record?
**A.** 9 ± 7.7 nM

**Q.** What about the IC50 (ULK2) of the same compound?
**A.** 21.6 nM

**Q.** What about the IC50 (MAP3K7) of the same compound?
**A.** 126 nM

**Q.** What about the IC50 (GSK3B) of the same compound?
**A.** 283 nM
